Values after ≈ are worked out from the molar mass of the structure shown.

In ChEMBL document CHEMBL6092162, “Identification of novel and potent triazoles targeting CYP51 for antifungal: Design, synthesis, and biological study” (Eur J Med Chem, 2024) one finds MIC80 data, which are given here for three compounds.

The test system of the first experiment is Nakaseomyces glabratus. The experiment in a line: Antifungal activity against Candida glabrata assessed as inhibition of fungal growth by CLSI M27-A3 guidelines based method. In kind it is functional.
Conditions: not given
The term MIC80 denotes an inhibitory concentration at the 80% level, which refers to growth in some studies and to a panel of isolates in others. Take `CN(Cc1ccc(N2CCN(Cc3ccc(OC(F)(F)F)cc3)CC2)cc1)CC(O)(Cn1cncn1)c1ccc(F)cc1F` (stereo not drawn): the MIC80 is 0.1 µg/mL (≈ 0.162 µM).

On to `CN(Cc1ccc(N2CCN(Cc3cc(F)ccc3Br)CC2)cc1)CC(O)(Cn1cncn1)c1ccc(F)cc1F` (stereo not drawn), for which the MIC80 amounted to 0.1 µg/mL (≈ 0.159 µM).

Turning to `CN(Cc1ccc(N2CCN(Cc3ccc(C(F)(F)F)cc3)CC2)cc1)CC(O)(Cn1cncn1)c1ccc(F)cc1F` (stereo not drawn), the MIC80 was 0.1 µg/mL (≈ 0.166 µM).

In another experiment the test system is Candida albicans. Put plainly: Antifungal activity against fluconazole-resistant Candida albicans clinical isolate 100 assessed as inhibition of fungal growth by CLSI M27-A3 guidelines based method.
Conditions: not given
In kind it is functional.
For `CN(Cc1ccc(N2CCN(Cc3ccc(OC(F)(F)F)cc3)CC2)cc1)CC(O)(Cn1cncn1)c1ccc(F)cc1F` (stereo not drawn), the MIC80 was found to be 8 µg/mL (≈ 13 µM).

Take `CN(Cc1ccc(N2CCN(Cc3cc(F)ccc3Br)CC2)cc1)CC(O)(Cn1cncn1)c1ccc(F)cc1F` (stereo not drawn): the MIC80 is 2 µg/mL (≈ 3.18 µM).

With `CN(Cc1ccc(N2CCN(Cc3ccc(C(F)(F)F)cc3)CC2)cc1)CC(O)(Cn1cncn1)c1ccc(F)cc1F` (stereo not drawn), the MIC80 turned out to be 8 µg/mL (≈ 13.3 µM).

The subject of a further experiment is Pichia kudriavzevii. Put plainly: Antifungal activity against Candida krusei GIM 2.1 assessed as inhibition of fungal growth by CLSI M27-A3 guidelines based method.
Conditions: not given
In kind it is functional.
As to `CN(Cc1ccc(N2CCN(Cc3ccc(OC(F)(F)F)cc3)CC2)cc1)CC(O)(Cn1cncn1)c1ccc(F)cc1F` (stereo not drawn), the MIC80 is 0.1 µg/mL (≈ 0.162 µM).

`CN(Cc1ccc(N2CCN(Cc3cc(F)ccc3Br)CC2)cc1)CC(O)(Cn1cncn1)c1ccc(F)cc1F` (stereo not drawn): the MIC80 is 0.1 µg/mL (≈ 0.159 µM).

The next experiment concerns Candida albicans. Put plainly: Antifungal activity against fluconazole-resistant Candida albicans clinical isolate 632 assessed as inhibition of fungal growth by CLSI M27-A3 guidelines based method.
Conditions: not given
It is filed as functional.
On to `CN(Cc1ccc(N2CCN(Cc3ccc(OC(F)(F)F)cc3)CC2)cc1)CC(O)(Cn1cncn1)c1ccc(F)cc1F` (stereo not drawn), for which the MIC80 turned out to be 32 µg/mL (≈ 51.9 µM).

Regarding `CN(Cc1ccc(N2CCN(Cc3cc(F)ccc3Br)CC2)cc1)CC(O)(Cn1cncn1)c1ccc(F)cc1F` (stereo not drawn), the MIC80 amounted to 16 µg/mL (≈ 25.4 µM).

Consider `CN(Cc1ccc(N2CCN(Cc3ccc(C(F)(F)F)cc3)CC2)cc1)CC(O)(Cn1cncn1)c1ccc(F)cc1F` (stereo not drawn), for which the MIC80 is 16 µg/mL (≈ 26.6 µM).

The next experiment has as its system Candida albicans. Put plainly: Antifungal activity against fluconazole-resistant Candida albicans CaR assessed as inhibition of fungal growth by CLSI M27-A3 guidelines based method. It is filed as functional.
Conditions: not given
Turning to `CN(Cc1ccc(N2CCN(Cc3ccc(OC(F)(F)F)cc3)CC2)cc1)CC(O)(Cn1cncn1)c1ccc(F)cc1F` (stereo not drawn), the MIC80 worked out at 0.063 µg/mL (≈ 0.102 µM).

On to `CN(Cc1ccc(N2CCN(Cc3cc(F)ccc3Br)CC2)cc1)CC(O)(Cn1cncn1)c1ccc(F)cc1F` (stereo not drawn), for which the MIC80 is 0.063 µg/mL (≈ 0.1 µM).

With `CN(Cc1ccc(N2CCN(Cc3ccc(C(F)(F)F)cc3)CC2)cc1)CC(O)(Cn1cncn1)c1ccc(F)cc1F` (stereo not drawn), the MIC80 turned out to be 0.063 µg/mL (≈ 0.105 µM).

The subject of another experiment is Candida albicans. Put plainly: Antifungal activity against fluconazole-resistant Candida albicans clinical isolate 103 assessed as inhibition of fungal growth by CLSI M27-A3 guidelines based method. It is filed as functional.
Conditions: not given
Turning to `CN(Cc1ccc(N2CCN(Cc3ccc(OC(F)(F)F)cc3)CC2)cc1)CC(O)(Cn1cncn1)c1ccc(F)cc1F` (stereo not drawn), the MIC80 was 32 µg/mL (≈ 51.9 µM).

Consider `CN(Cc1ccc(N2CCN(Cc3cc(F)ccc3Br)CC2)cc1)CC(O)(Cn1cncn1)c1ccc(F)cc1F` (stereo not drawn), for which the MIC80 is 8 µg/mL (≈ 12.7 µM).

Regarding `CN(Cc1ccc(N2CCN(Cc3ccc(C(F)(F)F)cc3)CC2)cc1)CC(O)(Cn1cncn1)c1ccc(F)cc1F` (stereo not drawn), the MIC80 is 32 µg/mL (≈ 53.3 µM).

The next experiment concerns Candida albicans. Put plainly: Antifungal activity against fluconazole-resistant Candida albicans clinical isolate 904 assessed as inhibition of fungal growth by CLSI M27-A3 guidelines based method. It is filed as functional.
Conditions: not given
As to `CN(Cc1ccc(N2CCN(Cc3ccc(OC(F)(F)F)cc3)CC2)cc1)CC(O)(Cn1cncn1)c1ccc(F)cc1F` (stereo not drawn), the MIC80 was found to be 32 µg/mL (≈ 51.9 µM).

On to `CN(Cc1ccc(N2CCN(Cc3cc(F)ccc3Br)CC2)cc1)CC(O)(Cn1cncn1)c1ccc(F)cc1F` (stereo not drawn), for which the MIC80 is 8 µg/mL (≈ 12.7 µM).

In the case of `CN(Cc1ccc(N2CCN(Cc3ccc(C(F)(F)F)cc3)CC2)cc1)CC(O)(Cn1cncn1)c1ccc(F)cc1F` (stereo not drawn), the MIC80 turned out to be 32 µg/mL (≈ 53.3 µM).

The test system of a further experiment is Candida albicans. The experiment in a line: Antifungal activity against fluconazole-resistant Candida albicans clinical isolate 901 assessed as inhibition of fungal growth by CLSI M27-A3 guidelines based method. In kind it is functional.
Conditions: not given
Regarding `CN(Cc1ccc(N2CCN(Cc3ccc(OC(F)(F)F)cc3)CC2)cc1)CC(O)(Cn1cncn1)c1ccc(F)cc1F` (stereo not drawn), the MIC80 is above 64 µg/mL.

For `CN(Cc1ccc(N2CCN(Cc3cc(F)ccc3Br)CC2)cc1)CC(O)(Cn1cncn1)c1ccc(F)cc1F` (stereo not drawn), the MIC80 is above 64 µg/mL.

On to `CN(Cc1ccc(N2CCN(Cc3ccc(C(F)(F)F)cc3)CC2)cc1)CC(O)(Cn1cncn1)c1ccc(F)cc1F` (stereo not drawn), for which the MIC80 was above 64 µg/mL.

The subject of a further experiment is Candida albicans. The experiment in a line: Antifungal activity against Candida albicans SC5314 assessed as inhibition of fungal growth by CLSI M27-A3 guidelines based method.
Conditions: not given
In kind it is functional.
With `CN(Cc1ccc(N2CCN(Cc3ccc(OC(F)(F)F)cc3)CC2)cc1)CC(O)(Cn1cncn1)c1ccc(F)cc1F` (stereo not drawn), the MIC80 was 0.013 µg/mL (≈ 0.0211 µM).

On to `CN(Cc1ccc(N2CCN(Cc3cc(F)ccc3Br)CC2)cc1)CC(O)(Cn1cncn1)c1ccc(F)cc1F` (stereo not drawn), for which the MIC80 is 0.013 µg/mL (≈ 0.0207 µM).

For the compound `CN(Cc1ccc(N2CCN(Cc3ccc(C(F)(F)F)cc3)CC2)cc1)CC(O)(Cn1cncn1)c1ccc(F)cc1F` (stereo not drawn), the MIC80 came out at 0.013 µg/mL (≈ 0.0216 µM).

A further experiment has as its system Candida parapsilosis. Put plainly: Antifungal activity against Candida parapsilosis GIM 2.190 assessed as inhibition of fungal growth by CLSI M27-A3 guidelines based method. In kind it is functional. Conditions: Lodderomyces parapsilosis.
Turning to `CN(Cc1ccc(N2CCN(Cc3ccc(OC(F)(F)F)cc3)CC2)cc1)CC(O)(Cn1cncn1)c1ccc(F)cc1F` (stereo not drawn), the MIC80 was 0.025 µg/mL (≈ 0.0405 µM).

As to `CN(Cc1ccc(N2CCN(Cc3cc(F)ccc3Br)CC2)cc1)CC(O)(Cn1cncn1)c1ccc(F)cc1F` (stereo not drawn), the MIC80 was 0.006 µg/mL (≈ 0.00953 µM).

In the case of `CN(Cc1ccc(N2CCN(Cc3ccc(C(F)(F)F)cc3)CC2)cc1)CC(O)(Cn1cncn1)c1ccc(F)cc1F` (stereo not drawn), the MIC80 worked out at 0.013 µg/mL (≈ 0.0216 µM).

A further experiment concerns Candida albicans. Put plainly: Antifungal activity against fluconazole and iodiconazole resistant Candida albicans clinical isolate 17# assessed as inhibition of fungal growth by CLSI M27-A3 guidelines based method. It is filed as functional.
Conditions: not given
With `CN(Cc1ccc(N2CCN(Cc3ccc(OC(F)(F)F)cc3)CC2)cc1)CC(O)(Cn1cncn1)c1ccc(F)cc1F` (stereo not drawn), the MIC80 turned out to be 0.125 µg/mL (≈ 0.203 µM).

For `CN(Cc1ccc(N2CCN(Cc3cc(F)ccc3Br)CC2)cc1)CC(O)(Cn1cncn1)c1ccc(F)cc1F` (stereo not drawn), the MIC80 amounted to 0.25 µg/mL (≈ 0.397 µM).

In the case of `CN(Cc1ccc(N2CCN(Cc3ccc(C(F)(F)F)cc3)CC2)cc1)CC(O)(Cn1cncn1)c1ccc(F)cc1F` (stereo not drawn), the MIC80 came out at 0.125 µg/mL (≈ 0.208 µM).

The next experiment deals with Candida tropicalis. Put plainly: Antifungal activity against Candida tropicalis GIM 2.183 assessed as inhibition of fungal growth by CLSI M27-A3 guidelines based method.
Conditions: not given
It is filed as functional.
Consider `CN(Cc1ccc(N2CCN(Cc3ccc(OC(F)(F)F)cc3)CC2)cc1)CC(O)(Cn1cncn1)c1ccc(F)cc1F` (stereo not drawn), for which the MIC80 amounted to 6 ng/mL (≈ 0.00973 µM).

`CN(Cc1ccc(N2CCN(Cc3cc(F)ccc3Br)CC2)cc1)CC(O)(Cn1cncn1)c1ccc(F)cc1F` (stereo not drawn): the MIC80 was 6 ng/mL (≈ 0.00953 µM).

In the case of `CN(Cc1ccc(N2CCN(Cc3ccc(C(F)(F)F)cc3)CC2)cc1)CC(O)(Cn1cncn1)c1ccc(F)cc1F` (stereo not drawn), the MIC80 was found to be 13 ng/mL (≈ 0.0216 µM).

The test system of a further experiment is Cryptococcus neoformans. The experiment in a line: Antifungal activity against Cryptococcus neoformans CGMCC 2.3161 assessed as inhibition of fungal growth by CLSI M27-A3 guidelines based method. In kind it is functional.
Conditions: not given
For the compound `CN(Cc1ccc(N2CCN(Cc3ccc(OC(F)(F)F)cc3)CC2)cc1)CC(O)(Cn1cncn1)c1ccc(F)cc1F` (stereo not drawn), the MIC80 is 0.1 µg/mL (≈ 0.162 µM).

Take `CN(Cc1ccc(N2CCN(Cc3ccc(C(F)(F)F)cc3)CC2)cc1)CC(O)(Cn1cncn1)c1ccc(F)cc1F` (stereo not drawn): the MIC80 was 0.1 µg/mL (≈ 0.166 µM).

The subject of the next experiment is Candida albicans. Put plainly: Antifungal activity against Candida albicans GIM 2.194 assessed as inhibition of fungal growth by CLSI M27-A3 guidelines based method. It is filed as functional.
Conditions: not given
As to `CN(Cc1ccc(N2CCN(Cc3ccc(OC(F)(F)F)cc3)CC2)cc1)CC(O)(Cn1cncn1)c1ccc(F)cc1F` (stereo not drawn), the MIC80 came out at 0.013 µg/mL (≈ 0.0211 µM).

For the compound `CN(Cc1ccc(N2CCN(Cc3cc(F)ccc3Br)CC2)cc1)CC(O)(Cn1cncn1)c1ccc(F)cc1F` (stereo not drawn), the MIC80 is 0.025 µg/mL (≈ 0.0397 µM).

As for `CN(Cc1ccc(N2CCN(Cc3ccc(C(F)(F)F)cc3)CC2)cc1)CC(O)(Cn1cncn1)c1ccc(F)cc1F` (stereo not drawn), the MIC80 is 0.013 µg/mL (≈ 0.0216 µM).

For the next experiment, the system named is Candida albicans. Put plainly: Antifungal activity against fluconazole-resistant Candida albicans clinical isolate 311 assessed as inhibition of fungal growth by CLSI M27-A3 guidelines based method. It is filed as functional.
Conditions: not given
As for `CN(Cc1ccc(N2CCN(Cc3ccc(OC(F)(F)F)cc3)CC2)cc1)CC(O)(Cn1cncn1)c1ccc(F)cc1F` (stereo not drawn), the MIC80 is above 64 µg/mL.

`CN(Cc1ccc(N2CCN(Cc3cc(F)ccc3Br)CC2)cc1)CC(O)(Cn1cncn1)c1ccc(F)cc1F` (stereo not drawn): the MIC80 was determined as 32 µg/mL (≈ 50.8 µM).

With `CN(Cc1ccc(N2CCN(Cc3ccc(C(F)(F)F)cc3)CC2)cc1)CC(O)(Cn1cncn1)c1ccc(F)cc1F` (stereo not drawn), the MIC80 stood at 32 µg/mL (≈ 53.3 µM).
